Reference: article PMC3683333, “^11C-LY2428703, a positron emission tomographic radioligand for the metabotropic glutamate receptor 1, is unsuitable for imaging in monkey and human brains” (EJNMMI Research, 2013)
Where two headings read alike, the source gives them in different places.

How the values were obtained:
[1] = target: human mGluR1s; parameters: method as in PMID 23135321; settings: cited from earlier work
[2] = test system: ABCB1 (permeability glycoprotein (P-gp)) and ABCG2 (breast cancer resistance protein (BCRP)); parameters: method as in PMID 23135321; settings: genetic knockout mice for ABCB1 and ABCG2; cited from earlier work
[3] = test system: other human mGluRs; parameters: method as in PMID 23135321; settings: cited from earlier work
[4] = test system: mGluR1; parameters: method as in PMID 23135321; settings: PET; cited from earlier work
[5] = Brain exposure comparison of five radioligands; assay type: in vivo, human
Method: Another complicating factor is low delivery to brain (i.e., low drug exposure), which may have cause low brain uptake. We compared five different radioligands from previous studies with regard to exposure to brain (Table 3) and measured the area under the curve of plasma concentration vs. time from 0 to 20 min. […] The effective exposure was thus named because only the free concentration of drug can cross the blood–brain barrier. ^11C-LY2428703 had the highest exposure value among the tracers tested. This high exposure was due to the slow wash-out of the tracer from the vascular compartment and to negligible metabolism in plasma, that is, parent radioligand represented 99% of plasma radioactivity even at the end of the 2-h scanning session.

[6] = parameters: method as in earlier work; settings: cited from earlier work; for Exposure SUV (0 to 20): AUC of plasma concentration vs. time, 0 to 20 min, data of previous studies; for fp: human plasma; for Brain peak SUV: human
[7] = target: mGluR1; parameters: method as in PMID 23135321; settings: rats; read-out: in vitro affinity; cited from earlier work
[8] = cited from earlier work
[9] = fp × AUC0 to 20, comparators from data of refs 22, 19, 23, 24

Compound | Exposure SUV (0 to 20) [6] [SUV] | fp [6] [%] | Brain peak SUV [6] [SUV] | also measured
COc1ccc(-c2nsc(NC(=O)[C@@H]3C[C@H]3C)c2C)cc1 [LY2428703] | – | – | – | Ki ([1]; females, read-out: Ki): 1.4 ± 0.4 nM; Ki ([1]; males, read-out: Ki): 2.7 ± 0.5 nM; substrate for efflux transporters at the blood–brain barrier [2]: not a substrate; affinity for other human mGluRs [3]: no significant affinity; signal in rat cerebellum [4]: large specific and displaceable signal
[11CH3]Oc1ccc([C@@H]2CNC(=O)C2)cc1OC1CCCC1 [^11C-( R )-rolipram] | 124.9 | 6.4 | 2 to 2.5 | Effective exposure (E × fp) ([5]; in vivo): 8.0
COc1ccc(-c2nsc(NC(=O)[C@@H]3C[C@H]3C)c2C)cc1 [^11C-LY2428703] | – | – | – | Ki [7]: 0.6 nM; Ki ([1]; humans, read-out: in vitro affinity): ~2 nM
[11CH3]NC(=O)[C@@H](Cc1ccccc1F)CN1CCC2(CC1)OCCc1cc(F)sc12 [^11C-NOP1A] | 36.7 | 10.1 | 5 to 7 | Effective exposure (E × fp) [5, 9]: 3.7
CC(C)Nc1cc(-c2csc(N(C)C(=O)c3ccc([18F])cc3)n2)ncn1 [^18F-FITM, reference compound] | – | – | – | LogD [8]: 1.5
C[C@@H](N[C@@H]1C[C@H](c2cccc(OC[18F])c2)N(c2ccc(C(F)(F)F)cc2)C1=O)c1ccccc1 [^18F-FMPEP] | 47.8 | 0.63 | 3 to 4 | Effective exposure (E × fp) [5, 9]: 0.30
N#Cc1cc(F)cc(C#Cc2csc(C[18F])n2)c1 [^18F-SP203] | 37.0 | 5.2 | ~6 | Effective exposure (E × fp) ([5]; in vivo): 1.9
